Results reported in patent EP0090603A2, “Antibacterial compounds” (BEECHAM GROUP PLC, priority 1982, dated 1983).
In brackets after ≈: the same amount, converted by molar mass.

What was measured:
Format in all cases: cell-based
[1] = tested on: M. suipneumoniae NB12; test: MIC against Mycoplasma, in vitro agar dilution; conditions: Friis broth solidified with 0.9% agarose, 10^3 to 10^5 C.F.U., 6 days at 37°C; for MIC: Mesomycoplasma hyopneumoniae, NB12, 144 h, read-out: MIC's against M. suipneumoniae NB12
[2] = tested on: M. suipneumoniae JF 435; test: MIC against Mycoplasma, in vitro agar dilution; conditions: Friis broth solidified with 0.9% agarose, 10^3 to 10^5 C.F.U., 6 days at 37°C; for MIC: Mesomycoplasma hyopneumoniae, JF435, 144 h, read-out: MIC's against M. suipneumoniae JF 435
[3] = tested on: M. suipneumoniae HK(2); test: MIC against Mycoplasma, in vitro agar dilution; conditions: Friis broth solidified with 0.9% agarose, 10^3 to 10^5 C.F.U., 6 days at 37°C; for MIC: Mesomycoplasma hyopneumoniae, 144 h, read-out: MIC's against M. suipneumoniae HK(2)
[4] = tested on: M. suipneumoniae Str. 11; test: MIC against Mycoplasma, in vitro agar dilution; conditions: Friis broth solidified with 0.9% agarose, 10^3 to 10^5 C.F.U., 6 days at 37°C; for MIC: Mesomycoplasma hyopneumoniae, STR.11, 144 h, read-out: MIC's against M. suipneumoniae Str. 11
[5] = tested on: M. suipneumoniae J2206/183^b; test: MIC against Mycoplasma, in vitro agar dilution; conditions: Friis broth solidified with 0.9% agarose, 10^3 to 10^5 C.F.U., 6 days at 37°C; for MIC: Mesomycoplasma hyopneumoniae, 144 h, read-out: MIC's against M. suipneumoniae J2206/183^b
[6] = tested on: M. suipneumoniae MS 16; test: MIC against Mycoplasma, in vitro agar dilution; conditions: Friis broth solidified with 0.9% agarose, 10^3 to 10^5 C.F.U., 6 days at 37°C; for MIC: Mesomycoplasma hyopneumoniae, MS16, 144 h, read-out: MIC's against M. suipneumoniae MS 16
[7] = tested on: M. suipneumoniae PW/C/210; test: MIC against Mycoplasma, in vitro agar dilution; conditions: Friis broth solidified with 0.9% agarose, 10^3 to 10^5 C.F.U., 6 days at 37°C; for MIC: Mesomycoplasma hyopneumoniae, 144 h, read-out: MIC's against M. suipneumoniae PW/C/210
[8] = tested on: M. suipneumoniae LABER; test: MIC against Mycoplasma, in vitro agar dilution; conditions: Friis broth solidified with 0.9% agarose, 10^3 to 10^5 C.F.U., 6 days at 37°C; for MIC: Mesomycoplasma hyopneumoniae, 144 h, read-out: MIC's against M. suipneumoniae LABER
[9] = tested on: M. suipneumoniae UCD 1; test: MIC against Mycoplasma, in vitro agar dilution; conditions: Friis broth solidified with 0.9% agarose, 10^3 to 10^5 C.F.U., 6 days at 37°C; for MIC: Mesomycoplasma hyopneumoniae, UCD1, 144 h, read-out: MIC's against M. suipneumoniae UCD 1
[10] = tested on: M. suipneumoniae TAM 6N; test: MIC against Mycoplasma, in vitro agar dilution; conditions: Friis broth solidified with 0.9% agarose, 10^3 to 10^5 C.F.U., 6 days at 37°C; for MIC: Mesomycoplasma hyopneumoniae, TAM6N, 144 h, read-out: MIC's against M. suipneumoniae TAM 6N
[11] = tested on: M. suipneumoniae ATCC 25095; test: MIC against Mycoplasma, in vitro agar dilution; conditions: Friis broth solidified with 0.9% agarose, 10^3 to 10^5 C.F.U., 6 days at 37°C; for MIC: Mesomycoplasma hyopneumoniae, ATCC25095, 144 h, read-out: MIC's against M. suipneumoniae ATCC 25095
[12] = tested on: M. suipneumoniae NCTC 10110; test: MIC against Mycoplasma, in vitro agar dilution; conditions: Friis broth solidified with 0.9% agarose, 10^3 to 10^5 C.F.U., 6 days at 37°C; for MIC: Mesomycoplasma hyopneumoniae, NCTC10110, 144 h, read-out: MIC's against M. suipneumoniae NCTC 10110
[13] = tested on: M. hyorhinis ATCC 23234; test: MIC against Mycoplasma, in vitro agar dilution; conditions: Friis broth solidified with 0.9% agarose, 10^3 to 10^5 C.F.U., 6 days at 37°C; for MIC: Mesomycoplasma hyorhinis, ATCC23234, 144 h, read-out: MIC's against M. hyorhinis ATCC 23234
[14] = tested on: M. hyorhinis ATCC 25021; test: MIC against Mycoplasma, in vitro agar dilution; conditions: Friis broth solidified with 0.9% agarose, 10^3 to 10^5 C.F.U., 6 days at 37°C; for MIC: Mesomycoplasma hyorhinis, ATCC25021, 144 h, read-out: MIC's against M. hyorhinis ATCC 25021
[15] = tested on: M. hyosynoviae ATCC 25591; test: MIC against Mycoplasma, in vitro agar dilution; conditions: Friis broth solidified with 0.9% agarose, 10^3 to 10^5 C.F.U., 6 days at 37°C; for MIC: 144 h, read-out: MIC's against M. hyosynoviae ATCC 25591
[16] = tested on: M. bovis NCTC 10131; test: microbe, parasite or virus in culture; conditions: for MIC: NCTC10131, 144 h, read-out: MIC's against M. bovis NCTC 10131; for MIC's against M. bovis NCTC 10131: Friis broth solidified with 0.9% agarose, 10^3 to 10^5 C.F.U., 6 days at 37°C
[17] = tested on: M. bovigenitalium ATCC 14173; test: MIC against Mycoplasma, in vitro agar dilution; conditions: Friis broth solidified with 0.9% agarose, 10^3 to 10^5 C.F.U., 6 days at 37°C; for MIC: 144 h, read-out: MIC's against M. bovigenitalium ATCC 14173
[18] = tested on: M. dispar NCTC 10125; test: MIC against Mycoplasma, in vitro agar dilution; conditions: Friis broth solidified with 0.9% agarose, 10^3 to 10^5 C.F.U., 6 days at 37°C; for MIC: 144 h, read-out: MIC's against M. dispar NCTC 10125
[19] = tested on: M. gallisepticum S6; test: MIC against Mycoplasma, in vitro agar dilution; conditions: Friis broth solidified with 0.9% agarose, 10^3 to 10^5 C.F.U., 6 days at 37°C; for MIC: Mycoplasmoides gallisepticum, S6, 144 h, read-out: MIC's against M. gallisepticum S6
[20] = tested on: M. pneumoniae ATCC 15492; test: MIC against Mycoplasma, in vitro agar dilution; conditions: Friis broth solidified with 0.9% agarose, 10^3 to 10^5 C.F.U., 6 days at 37°C; for MIC: Mycoplasmoides pneumoniae, ATCC15492, 144 h, read-out: MIC's against M. pneumoniae ATCC 15492

Row | Molecule | MIC [1] [µg/mL] | MIC [2] [µg/mL] | MIC [3] [µg/mL] | MIC [4] [µg/mL] | MIC [5] [µg/mL] | MIC [6] [µg/mL] | MIC [7] [µg/mL] | MIC [8] [µg/mL] | MIC [9] [µg/mL] | MIC [10] [µg/mL] | MIC [11] [µg/mL] | MIC [12] [µg/mL] | MIC [13] [µg/mL] | MIC [14] [µg/mL] | MIC [15] [µg/mL] | MIC [16] [µg/mL] | MIC [17] [µg/mL] | MIC [18] [µg/mL] | MIC [19] [µg/mL] | MIC [20] [µg/mL] | other results
1 | CC(CC1OCC(CC2OC2C(C)C(C)O)C(O)C1O)=C(C)C(=O)OCc1ccc(Br)cc1 (stereo not shown) [Example 12, 4-Bromobenzyl 2-methylmonate A] | 5 (≈ 9.48 µM) | 10 (≈ 19 µM) | 10 (≈ 19 µM) | 5 (≈ 9.48 µM) | 10 (≈ 19 µM) | 5 (≈ 9.48 µM) | 5 (≈ 9.48 µM) | 5 (≈ 9.48 µM) | 10 (≈ 19 µM) | 10 (≈ 19 µM) | 5 (≈ 9.48 µM) | 10 (≈ 19 µM) | 2.5 (≈ 4.74 µM) | 2.5 (≈ 4.74 µM) | 2.5 (≈ 4.74 µM) | 0.1 (≈ 0.19 µM) | 0.25 (≈ 0.474 µM) | 2.5 (≈ 4.74 µM) | > 10 | 10 (≈ 19 µM) | 
2 | CC(CC1OCC(CC2OC2C(C)C(C)O)C(O)C1O)=C(C)C(=O)OCc1cc(C)no1 (stereo not shown) [Example 14, 3-Methyl-5-isoxazolylmethyl 2-methylmonate A] | 0.5 (≈ 1.1 µM) | 0.5 (≈ 1.1 µM) | 0.5 (≈ 1.1 µM) | 0.25 (≈ 0.551 µM) | 0.5 (≈ 1.1 µM) | 0.25 (≈ 0.551 µM) | 0.25 (≈ 0.551 µM) | 0.25 (≈ 0.551 µM) | 0.5 (≈ 1.1 µM) | 1 (≈ 2.2 µM) | 0.5 (≈ 1.1 µM) | 0.5 (≈ 1.1 µM) | 0.25 (≈ 0.551 µM) | 0.25 (≈ 0.551 µM) | 0.1 (≈ 0.22 µM) | ≤ 0.01 | 0.025 (≈ 0.0551 µM) | 0.1 (≈ 0.22 µM) | 1 (≈ 2.2 µM) | 1 (≈ 2.2 µM) | 
3 | 4-(Methylthio)benzyl 2-methylmonate [Example 11] |  |  |  |  |  |  |  |  |  |  |  |  |  |  |  |  |  |  |  |  | MIC's against M. suipneumoniae NB12 [1]: 1.0 µg/mL; MIC's against M. suipneumoniae JF 435 [2]: 2.5 µg/mL; MIC's against M. suipneumoniae HK(2) [3]: 2.5 µg/mL; MIC's against M. suipneumoniae Str. 11 [4]: 1.0 µg/mL; MIC's against M. suipneumoniae J2206/183^b [5]: 2.5 µg/mL; MIC's against M. suipneumoniae MS 16 [6]: 1.0 µg/mL; MIC's against M. suipneumoniae PW/C/210 [7]: 1.0 µg/mL; MIC's against M. suipneumoniae LABER [8]: 1.0 µg/mL; MIC's against M. suipneumoniae UCD 1 [9]: 2.5 µg/mL; MIC's against M. suipneumoniae TAM 6N [10]: 2.5 µg/mL; MIC's against M. suipneumoniae ATCC 25095 [11]: 2.5 µg/mL; MIC's against M. suipneumoniae NCTC 10110 [12]: 2.5 µg/mL; MIC's against M. hyorhinis ATCC 23234 [13]: 1.0 µg/mL; MIC's against M. hyorhinis ATCC 25021 [14]: 0.5 µg/mL; MIC's against M. hyosynoviae ATCC 25591 [15]: 0.25 µg/mL; MIC's against M. bovis NCTC 10131 [16]: 0.05 µg/mL; MIC's against M. bovigenitalium ATCC 14173 [17]: 0.1 µg/mL; MIC's against M. dispar NCTC 10125 [18]: 0.5 µg/mL; MIC's against M. gallisepticum S6 [19]: 10 µg/mL; MIC's against M. pneumoniae ATCC 15492 [20]: 5.0 µg/mL
4 | 8-Hydroxyoctyl 2-methylmonate A [Example 13] |  |  |  |  |  |  |  |  |  |  |  |  |  |  |  |  |  |  |  |  | MIC's against M. suipneumoniae NB12 [1]: 1.0 µg/mL; MIC's against M. suipneumoniae JF 435 [2]: 1.0 µg/mL; MIC's against M. suipneumoniae HK(2) [3]: 1.0 µg/mL; MIC's against M. suipneumoniae Str. 11 [4]: 0.5 µg/mL; MIC's against M. suipneumoniae J2206/183^b [5]: 1.0 µg/mL; MIC's against M. suipneumoniae MS 16 [6]: 0.5 µg/mL; MIC's against M. suipneumoniae PW/C/210 [7]: 0.5 µg/mL; MIC's against M. suipneumoniae LABER [8]: 0.5 µg/mL; MIC's against M. suipneumoniae UCD 1 [9]: 1.0 µg/mL; MIC's against M. suipneumoniae TAM 6N [10]: 1.0 µg/mL; MIC's against M. suipneumoniae ATCC 25095 [11]: 0.5 µg/mL; MIC's against M. suipneumoniae NCTC 10110 [12]: 1.0 µg/mL; MIC's against M. hyorhinis ATCC 23234 [13]: 0.5 µg/mL; MIC's against M. hyorhinis ATCC 25021 [14]: 0.5 µg/mL; MIC's against M. hyosynoviae ATCC 25591 [15]: 0.1 µg/mL; MIC's against M. bovis NCTC 10131 [16]: ≤0.01 µg/mL; MIC's against M. bovigenitalium ATCC 14173 [17]: 0.05 µg/mL; MIC's against M. dispar NCTC 10125 [18]: 0.1 µg/mL; MIC's against M. gallisepticum S6 [19]: 5.0 µg/mL; MIC's against M. pneumoniae ATCC 15492 [20]: 1.0 µg/mL
5 | CC(CC1OCC(CC2OC2C(C)C(C)O)C(O)C1O)=C(C)C(=O)OCCCCCCCCC(=O)O [Example 7, Sodium 9-[4-(5S-(2S,3S-epoxy-5S-hydroxy-4S-methylhexyl) -3R,4R-dihdroxytetrahydroxyran-2S-yl)-2,3-dimethylbut-2(E)-enoyloxy]nonanoate] | 10 | > 10 | > 10 | 5 | > 10 | 5 | 5 | 5 | > 10 | > 10 | 10 | 10 | 2.5 | 2.5 | 1 | 0.05 | 0.5 | 2.5 | > 10 | > 10 | 
